Converted amounts (≈) assume the structure as drawn. Like-named read-outs stand apart in the source and are kept apart here.

Three compounds from publication PMC10718076, “1,2-Disubstituted bicyclo[2.1.1]hexanes as saturated bioisosteres of ortho-substituted benzene” (Chemical Science, 2023) can be followed below.

The nature of data set [1]: physchem.
Description: Determination of Distribution Coefficient (LogD, pH 7.4)
coefficient (or LogD) is a logarithm of the ratio of drug concentrations in two immiscible solvents,
typically pH-buffered water and n-octanol. It is a measure of hydrophobic/hydrophilic properties of
a given molecule. The partition of test compounds is determined using a shake-flask method, which
involves mixing of a certain amount of the solute of interest in defined volumes of n-octanol and an
aqueous buffer of choice followed by equilibration of the mixture by incubation with efficient
mixing. Then, the distribution of the compounds in each solvent was controlled using LC-MS/MS.
Phosphate buffered saline, tablet (Sigma-Aldrich, USA; Cat # P4417)
Acetic acid (Enamine, Ukraine)
1.1 mL microtubes in microracks, pipettor tips (Thermo Scientific, USA).
National Scientific MicroTube™ Rack (Thermo Fisher Scientific, USA; Cat # TN094612R)
Gradient HPLC system (Shimadzu, Japan)
Triple quadrapole mass-detector API 3000 with TurboIonSpray Ion Source (AB Sciex, Canada)
MTR22 Multi Mix Rotator (UNICO, USA)
Laboratory Centrifuge, Sigma 4-15C, Qiagen (SIGMA GmbH, Germany)
Water purification system Millipore Milli-Q Gradient A10 (Millipore, France)
All measurements were performed using a Shimadzu Prominence HPLC system including a
vacuum degasser, gradient pumps, a reverse phase column, a column oven and an autosampler.
Mass spectrometric analysis was performed using an API 4000 QTRAP mass spectrometer from
Applied Biosystems/MDS Sciex (AB Sciex) with Turbo V ion source and TurboIonspray
interface. The TurboIonSpray ion source was used in both positive and negative ion modes.
Acquisition and analysis of the data were performed using Analyst 1.6.3 software.
Incubations were carried out in Eppendorf-type polypropylene microtubes in triplicates. A 2.5 μL
aliquot of 20 mM DMSO stock of a test compound was added into the previously mutually
saturated mixture containing 500 μL of PBS (pH 7.4) and 500 μL of octanol. The solution was
allowed to mix in a rotator for 1 hour at 30 rpm. Phase separation was assured by centrifugation for
2 min at 6000 rpm. The octanol phase was diluted 100-fold with 40% acetonitrile, and the aqueous
phase (PBS buffer) was diluted 10-fold with 40% acetonitrile. The samples (both phases) were
analyzed using an HPLC system coupled with a tandem mass spectrometer.
Calculations of the partition ratios were carried out using the equation below.
where: – peak area of the analyte in octanol phase
– peak area of the analyte in PBS buffer
– dilution coefficient for octanol phase dp – dilution coefficient for aqueous phase
The nature of data set [2]: Kinetic solubility in phosphate-buffered saline, pH 7.4. The class given is physicochemical. As to conditions: 25 °C, pH 7.4, aqueous buffer, kinetic from dmso stock; for solubility at 2 h: PBS solubility. On the procedure:
Analysis of Aqueous Solubility […]
compound (Ondansetron) were assessed for kinetic solubility in phosphate -buffered saline, pH 7.4.
Phosphate buffered saline, pH 7.4 (Sigma -Aldrich, USA; Cat #P3813) […]
MultiScreen HTS 96 Well Filter Plates (Millipore, Ireland; Cat # MSSLBPC10) […]
Matrix Multichannel Electronic Pipette 2-125 μL, 5-250 μL, 15-1250 μL (Thermo Scientific, USA; […]
Vacuum pump (Millipore, USA; Model # XX5500000)
The measurements were performed using SpectraMax Plus reader in UV -Vis mode. Acquisition and […]
The measurements were performed using SpectraMax Paradigm reader in UV-Vis mode.
Acquisition and analysis of the data were performed using SoftMax Pro v.5.4 (Molecular Devices) […]
Kinetic solubility assay was performed according to the Enamine’s aqueous solubility SOP. Briefly, using a 20 mM stock solution of the compound in 100% DMSO dilutions were prepared to a theoretical concentration of 400 μM in duplicates in phosphate-buffered saline pH 7.4 […]
compound dilutions in PBS were further allowed to equilibrate at 25 °C on a thermostatic shaker for two hours and then filtered through HTS filter plates using a vacuum manifold. The filtrates of test compounds were diluted 2-fold with acetonitrile with 2% DMSO before measuring.
In parallel, compound dilutions in 50% acetonitrile/PBS were prepared to theoretical concentrations […]
calibration curves. Ondansetron was used as reference compound to control proper assay performance. 200 μl of each sample was transferred to 96-well plate and measured in 230-550 nm range with 5 nm step. The effective range of this assay is approximately 2-400 μM and the […]
The concentrations of compounds in PBS filtrate are calculated using a dedicated Microsoft Excel calculation script. Proper absorbance wavelengths for calculations are selected for each compound manually based on absorbance maximums (absolute absorbance unit values for the minimum and maximum concentration points within the 0 – 3 OD range). Each final dataset is visually evaluated by the operator, and goodness of fit (R2) is calculated for each calibration curve. […]
samples were diluted 2-fold with acetonitrile containing internal standard and were analyzed using the HPLC system coupled with a tandem mass spectrometer. The effective range of this assay is […]

The nature of data set [3]: Metabolic stability in human liver microsomes. As to conditions: both, liver microsomes (pooled); for remaining at 40 min, 2 µM: Mean of 2, 40 min. Background: Microsomes from liver hold many membrane-bound enzymes, among them those of drug oxidation.
Data set [4] can be described thus: in vitro. As to conditions: both, human.
For data set [5] the following is noted: both, human, pH 7.4.
The mark [6] stands for this setting: Table S5, injection 1, octanol/PBS pH 7.4.
Where [7] appears, read: Table S5, injection 2, octanol/PBS pH 7.4.
The mark [8] stands for this setting: Table S5, injection 3, octanol/PBS pH 7.4.
Setting [9] is: microsomes, pH 7.4, % Remaining, Mean of 2.

What is called logD is the decadic logarithm of the distribution of all forms, ionised or not, between an organic phase and buffer at a given pH. Low readings indicate lower lipophilicity, high ones higher lipophilicity. Usually kinetic solubility stands for solubility judged after dilution from a stock solution rather than from solid. In general, solubility refers to how much of the substance goes into solution per volume. A higher solubility goes with much dissolved substance. One may read the microsomal CLint as the rate of metabolic loss divided by the concentration. Usually half-life stands for the time needed for the level to fall by half in the phase considered. Regarding `O=C(NC1CCN(CCCCC2(C(=O)NCC(F)(F)F)c3ccccc3-c3ccccc32)CC1)C1CC2CC1(c1ccc(C(F)(F)F)cc1)C2` (centres unmarked) [Compound 27], the logD at 1 h in data set [1] (pH 7.4, LogD, pH 7.4) was found to be 3.89; in data set [1] (pH 7.4, log D (7.4)) it was 3.9. In data set [2], the solubility (kinetic) at 2 h was 18 µM (≈ 12.6 µg/mL). The solubility at 2 h was 18 µM (≈ 12.6 µg/mL) in data set [2] (pH 7.4, Incubation 1); 19 µM (≈ 13.3 µg/mL) in data set [2] (pH 7.4, Incubation 2); 18 µM (≈ 12.6 µg/mL) in data set [2] (pH 7.4, Mean). The D runs as follows: under setting [6], 7.79E+03; under setting [7], 7.46E+03; under setting [8], 8.20E+03. Also, in data set [3] (pH 7.4), the microsomal CLint at 2 µM is 186 µL/min/mg. Also, the amount remaining at 40 min, 2 µM in data set [3] (pH 7.4, % Remaining without cofactor, no NADPH cofactor, Table S6, 1st batch) was found to be 106%; in data set [3] (pH 7.4, % Remaining, Table S6, 1st batch), 5%. Moreover, the share remaining at […], 2 µM is 47% in data set [3] (pH 7.4, % Remaining, Mean of 2, 7 min, Table S6, 1st batch) and 20% in data set [3] (pH 7.4, % Remaining, Mean of 2, 15 min, Table S6, 1st batch). The amount remaining at 25 min, 2 µM in data set [3] (pH 7.4, % Remaining, Mean of 2, 25 min, Table S6, 1st batch) was 9%. In data set [3] (pH 7.4, kel, Table S6, 1st batch), this compound gave a k el at 2 µM of 0.00128 s⁻¹. The compound also gave a half-life at 2 µM in data set [3] (pH 7.4, t1/2, Table S6, 1st batch) of 9 min.
In data set [1] (pH 7.4, LogD, pH 7.4), `Cc1nc2c([nH]1)-c1ccccc1N(C(=O)c1ccc(NC(=O)c3ccccc3-c3ccccc3)cc1)CC2` [Conivaptan, conivaptan] showed a logD at 1 h of 4.3. The same compound registered a microsomal CLint at 2 μM in data set [4] (microsomes, pH 7.4) of 31 µL/min/mg. Further, the fraction remaining at 40 min, 2 µM was 101% in data set [4] (microsomes, pH 7.4, % Remaining without cofactor, Mean of 2) and 60% in data set [4] (setting [9]). Moreover, in data set [4] (setting [9]), the amount remaining at 25 min, 2 µM worked out at 67%. Moreover, the half-life at 2 µM in data set [4] (microsomes, pH 7.4, t1/2) was 54.4 min. The compound further gave a k el at 2 µM in data set [4] (pH 7.4, kel) of 0.000217 s⁻¹. This compound showed a kinetic solubility at 2 h in data set [2] of 5 µM (≈ 2.49 µg/mL). In addition, the solubility at 2 h was 4 µM (≈ 1.99 µg/mL) in data set [2] (pH 7.4, Incubation 1); 7 µM (≈ 3.49 µg/mL) in data set [2] (pH 7.4, Incubation 2); 5 µM (≈ 2.49 µg/mL) in data set [2] (pH 7.4, Mean). The D is 1.98E+04 under setting [6], 2.11E+04 under setting [7] and 1.99E+04 under setting [8].
For the compound `O=C(O)Cc1ccccc1Nc1c(Cl)cccc1Cl` [Diclofenac], in data set [4] (microsomes, pH 7.4), the microsomal CLint at 2 µM was determined as 173 µL/min/mg and the microsomal CLint at 2 μM turned out to be 272 µL/min/mg. In addition, in data set [4] (pH 7.4, kel), the k el at 2 µM was 0.0012 s⁻¹ and the k el at 2 μM is 0.00123 s⁻¹. The microsomal CLint at 2 μM in data set [4] (s9, pH 7.4) stood at 178 µL/min/mg. In addition, the “% Remaining, Mean of 2” value in data set [5] (microsomes, 25 min, 2 µM) is on record as 9%. Further, the “% Remaining, Mean of 2” value in data set [5] (s9, 25 min, 2 μM) is reported as 9%.
